This note sets out measurements from publication PMC9037210, “Novel 3-(6-methylpyridin-2-yl)coumarin-based chalcones as selective inhibitors of cancer-related carbonic anhydrases IX and XII endowed with anti-proliferative activity” (Journal of Enzyme Inhibition and Medicinal Chemistry, 2022).

For orientation: GI50 means the concentration giving 50% growth inhibition. The TGI is the concentration giving total growth inhibition. Low values mean more potent growth arrest, high ones less potent growth arrest.

One assay relates to 786-0. As to the kind of experiment: NCI single (10 µM) dose SRB screening, 786-0. The format is cell-based, human. The following applies: 10 µM single dose, 786-0, Renal cancer. The protocol: (§1) Following NCI protocol, sixteen MPCs were screened for their potential in vitro anticancer effects against human 59 cancer cell panels including prostate, leukaemia melanoma, colon, breast, CNS, renal, NSCLC, and ovarian cancers by National Cancer Institute (USA)[30].
(§2) The antiproliferative activities of MPC 3 and MPCs 5a–o were first evaluated in a 10 µM dose assay, with SRB assay used to determine cell survival and proliferation. […] The results of the cell growth inhibitory activities for MPCs 5g and 5l towards the different treated tumour cell lines were presented as GI% and presented in Table 3.
(§3) The anticancer test was conducted using the methods of the Drug Evaluation Branch, National Cancer Institute, Bethesda, MD, using 59 human tumour cell lines derived from nine human tissues. The GI50, TGI, and LC50 dose-response parameters were calculated for each medication.

The test system of a further assay is HS 578 T. As to the kind of experiment: NCI single (10 µM) dose SRB screening, HS 578 T. The format is cell-based, human. The settings on record: 10 µM single dose, Breast cancer. The protocol:
as §1, §2, §3

The next assay concerns SK-MEL-28. As to the kind of experiment: NCI single (10 µM) dose SRB screening, SK-MEL-28. Format: cell-based, human. The settings on record: 10 µM single dose, SK-MEL-28, Melanoma. On the procedure:
as §1, §2, §3

In another assay the test system is A549/ATCC. As to the kind of experiment: NCI single (10 µM) dose SRB screening, A549/ATCC. Format: cell-based, human. The settings on record: 10 µM single dose, NSC lung cancer. The protocol:
as §1, §2, §3

Assay [1] concerns RPMI-8226. As to the kind of experiment: NCI single (10 µM) dose SRB screening, RPMI-8226. Format: cell-based, human. The following applies: 10 µM single dose, RPMI-8226, Leukaemia. The protocol: as §1, §2, §3
The subject of assay [2] is U251. As to the kind of experiment: NCI single (10 µM) dose SRB screening, U251. Format: cell-based, human. The following applies: 10 µM single dose, U251, CNS cancer. The protocol: as §1, §2, §3
In assay [3] the test system is K-562. As to the kind of experiment: NCI single (10 µM) dose SRB screening, K-562. Format: cell-based, human. The following applies: 10 µM single dose, K-562, Leukaemia. The protocol:
as §1, §2, §3

The test system of another assay is SR. As to the kind of experiment: NCI five dose assay, SR. The format is cell-based, human. The following applies: Leukaemia. On the procedure: (§4) MPC 5l was then chosen for additional biological evaluation in a five-dose (0.01–100 µM) experiment. MPC 5l's GI50, TGI, and LC50 response parameters were obtained for each of the cancer cell lines studied. TGI represents cytostatic impact, whereas GI50 values reflect the extent of growth inhibitory effect. Furthermore, the LC50 parameter is regarded as the cytotoxicity parameter for the hybrid under investigation.
as §3

The subject of assay [4] is K-562. As to the kind of experiment: NCI five dose assay, K-562. Format: cell-based, human. The protocol:
as §4, §3

In assay [5] the test system is U251. As to the kind of experiment: NCI five dose assay, U251. Format: cell-based, human. On the procedure: as §4, §3
Assay [6] relates to RPMI-8226. As to the kind of experiment: NCI five dose assay, RPMI-8226. Format: cell-based, human. The settings on record: RPMI-8226, Leukaemia. The protocol: as §4, §3
Another assay concerns HCT-116. As to the kind of experiment: NCI five dose assay, HCT-116. The settings on record: HCT-116, Colon cancer. The format is cell-based, human. The protocol: as §4, §3
The subject of the next assay is SW-620. As to the kind of experiment: NCI five dose assay, SW-620. The settings on record: SW-620, Colon cancer. The format is cell-based, human. The protocol:
as §4, §3

Another assay concerns SNB-19. As to the kind of experiment: NCI single (10 µM) dose SRB screening, SNB-19. The format is cell-based, human. The settings on record: 10 µM single dose, SNB-19, CNS cancer. On the procedure: as §1, §2, §3
In the next assay the test system is MCF7. As to the kind of experiment: NCI five dose assay, MCF7. Format: cell-based, human. The following applies: MCF7, Breast cancer. The protocol:
as §4, §3

The next assay relates to HOP-92. As to the kind of experiment: NCI five dose assay, HOP-92. Format: cell-based, human. The following applies: HOP-92, NSC lung cancer. The protocol:
as §4, §3

The next assay concerns LOX IMVI. As to the kind of experiment: NCI five dose assay, LOX IMVI. The settings on record: Melanoma. Format: cell-based, human. The protocol:
as §4, §3

The subject of assay [7] is fifty-nine cancer cell lines. As to the kind of experiment: full NCI panel five dose assay, whole panel. Format: cell-based. The settings on record: five-dose (0.01–100 µM). The protocol:
as §4, §3

Where [8] appears, read: Homo sapiens, read-out: IC50 (the source's name).

In the case of `Cc1nc(-c2cc3ccccc3oc2=O)ccc1C(=O)/C=C/c1ccc(N2CCOCC2)cc1` [Compound 5g, 3-(6-Methyl-5-[(2E)-3-[4-(morpholin-4-yl)phenyl]prop-2-enoyl]pyridin-2-yl)-2H-chromen-2-one], the GI % is given as 24% in the assay with 786-0; 40% in the assay on HS 578 T; 27% with SK-MEL-28; “– (Only GI % more than 20% are displayed.)” in the assay on A549/ATCC; “– (Only GI % more than 20% are displayed.)” in the assay on RPMI-8226 [1]; “– (Only GI % more than 20% are displayed.)” in the assay on U251 [2]. Moreover, the GI % with K-562 [3] turned out to be 62%.

As for `Cc1nc(-c2cc3ccccc3oc2=O)ccc1C(=O)/C=C/c1ccccn1` [Compound 5l, 3-(6-Methyl-5-[(2E)-3-(pyridin-2-yl)prop-2-enoyl]pyridin-2-yl)-2H-chromen-2-one], the GI50 in the assay with SR (Homo sapiens) turned out to be 5.3 µM; with K-562 [4] (Homo sapiens, K562, K-562, Leukaemia), 6.47 µM; with U251 [5] (Homo sapiens, U-251, U251, CNS cancer), 8.49 µM; with RPMI-8226 [6] (Homo sapiens), 3.41 µM; in the assay on HCT-116 (Homo sapiens) it was 6.34 µM; in the assay on SW-620 (Homo sapiens) it was 6.77 µM. Also, the GI50 in the assay on MCF7 (Homo sapiens) was 3.72 µM; with HOP-92 (Homo sapiens), 7.25 µM; in the assay with LOX IMVI (Homo sapiens), 3.2 µM; in assay [7] (Homo sapiens, remaining cancer cells (other than the nine of Table 4)), above 100 µM. For the same compound, the LC50 in the assay with SR (setting [8]) was above 100 µM; with K-562 [4] (Homo sapiens, K562, K-562, Leukaemia, read-out: IC50 (the source's name)), above 100 µM; in the assay with U251 [5] (Homo sapiens, U-251, U251, CNS cancer, read-out: IC50 (the source's name)), above 100 µM; with RPMI-8226 [6] (setting [8]), above 100 µM; with HCT-116 (setting [8]), above 100 µM; in the assay on SW-620 (setting [8]), above 100 µM. Moreover, the LC50 in the assay on MCF7 (setting [8]), in the assay with HOP-92 (setting [8]) and in the assay on LOX IMVI (setting [8]) was above 100 µM in each case. In addition, the TGI with SR was above 100 µM; in the assay with K-562 [4] (K-562, Leukaemia), above 100 µM; in the assay on U251 [5] (U251, CNS cancer), above 100 µM; in the assay on RPMI-8226 [6], above 100 µM; in the assay with HCT-116, above 100 µM; in the assay on SW-620, above 100 µM. Besides, the TGI (in the assay on MCF7; with HOP-92; in the assay on LOX IMVI; in assay [7] (all cancer cell lines)) was above 100 µM throughout. For the same compound, the GI % with 786-0 was 93%; in the assay with HS 578 T it was “– (Only GI % more than 20% are displayed.)”; in the assay with SNB-19, 28%; in the assay on SK-MEL-28, “– (Only GI % more than 20% are displayed.)”; in the assay with A549/ATCC, 33%; with RPMI-8226 [1], 136%. Besides, the GI % in the assay with U251 [2] and in the assay on K-562 [3] was 92% in each case. Also, the CC50 in [7] (Homo sapiens, all cancer cells, read-out: LC50 (the source's name)) was above 100 µM.
